Structures can show the parent of a compound that is named as a salt.
What was measured:
in vitro = assay: in vitro
Source text: Additionally, those molecular entities that are footnoted as “2” had permeability measurements obtained in an aqueous buffer and a buffer having 20 percent acetonitrile added thereto. For this example, a PAMPA Evolution instrument from pION INC of Woburn, Mass.
Solution pH was adjusted using a universal buffer as well as a buffer solution having a pH of 7.4 and containing a chemical scavenger to simulate serum proteins, which can be obtained from pION INC of Woburn, Mass. […] Donor and acceptor microtitre plates with 96 compartments were also employed for this example. The acceptor plate was obtained from Millipore Corporation of Billerica, Mass.
This approach for determining Pe is often referred to as the pKa^FLUX method.
As indicated above, the acceptor solutions contained a surfactant in order to mimic some of the function of serum proteins.
When not being stirred, a PAMPA sandwich was formed and permitted to incubate in the GUT-BOX at about 23° C. for up to several hours in an atmosphere saturated in humidity and scrubbed free of oxygen and carbon dioxide. Preferably, incubation was performed for up to about four hours. […] For example, the stirring members in FIG. 10 can be magnetized flippers that are controlled by a magnetic stirrer in the GUT-BOX, which causes the members to rotate about a horizontal axis. A speed dial for the magnetic stirrer, as described above, can be calibrated in units of thickness of the expected boundary layer rather than as standard units such as rpm.
After a permeation time in the GUT-BOX was reached, the PAMPA sandwich could then be separated and the donor and acceptor compartments studied for the amount of entity present. The amount of entity present was determined from UV measurements compared to UV spectra obtained from reference standards. The reference UV spectra were performed in a range from about 230 to 500 nanometers (nm). Moreover, mass balance was used to determine the amount of material retained by the porous support and DOUBLE-SINK GIT-0 lipid as generally described by Avdeef et al., Eur. J. Pharm.
The determination of Pe also accounted for the porous support area and its porosity. In particular, the support area of 0.3 centimeters squared (cm^2) was multiplied by the apparent porosity (εa) of the support, which was about 0.76, such as generally described by Nielsen et al., Eur. J. Pharm.
The majority of the data in Tables 1 through 5 is from unstirred assays and those stirred at about 186 rpm. […] The maximum speed used for these entities was 622 rpm.
Again, several entities were studied in a buffer comprising about 20 percent acetonitrile. These entities are footnoted as “1” in Tables 1 through 5. […] Tables 1 through 5 are provided below with Table 1 at 0 rpm, Table 2 stirred at 49 rpm, Table 3 stirred at 118 rpm, Table 4 stirred at 186 rpm and Table 5 stirred at 622 rpm. Tables 1 through 5 also include the standard deviation (SD) of determined Pu values.
The boundary layer thickness (h) in Tables 1 through 5 can be determined by […] of diffusion, which is
Pu values derived at various stirring speeds by using the pKa^FLUX method, as described above, were also subjected to a hydrodynamic analysis using the equation Pu=Kν^α in a logarithmic form. For example, FIG. 13 provides a plot of the logarithm of Pu versus the logarithm of ν comprising 36 measurements based on 14 molecular entities studied at several different stirring speeds. The intercept in such a plot is the logarithm of the stirring efficiency factor (K) with the slope being the hydrodynamic factor (α).

[1] = testosterone at 37° C., Karlsson et al.; dotted curve FIG. 15; cited from earlier work
Caco-2 type cells = details: testosterone data at 22° C., Adson et al.; dashed line FIG. 15; cited from earlier work
[2] = PAMPA, Pu (boundary layer permeability)
[3] = 0 rpm (unstirred), aqueous buffer, pKa^FLUX method
[4] = PAMPA, Pu (boundary layer permeability), 0 rpm (unstirred), aqueous buffer, pKa^FLUX method

SMILES | Papp at 50 µM (in vitro; [2]) [×10⁻⁶ cm/s] | also measured
O=C(O)c1ccc2ccccc2c1 [2-naphthoic acid] | 595 | 
O=C(O)Cc1cccc(O)c1 [3-hydroxyphenylacetic acid] | 50 | 
CCCCN1CCN(c2cc3c(cc2F)c(=O)c(C(=O)O)cn3C2CC2)CC1C (stereo not shown) [4′N-Bu-3′-Me-ciprofloxacin] |  | Pu (boundary layer permeability) (in vitro; [3]): 23
CCN1CCN(c2cc3c(cc2F)c(=O)c(C(=O)O)cn3C2CC2)CC1C (stereo not shown) [4′N-Et-3′-Me-ciprofloxacin] |  | Pu (boundary layer permeability) (in vitro; [3]): 53
CCCN1CCN(c2cc3c(cc2F)c(=O)c(C(=O)O)cn3C2CC2)CC1C (stereo not shown) [4′N-Pr-3′-Me-ciprofloxacin] |  | Pu (boundary layer permeability) (in vitro; [3]): 40
CCCC(=O)Nc1ccc(OCC(O)CNC(C)C)c(C(C)=O)c1 (stereo not shown) [Acebutolol, acebutolol] | 63 | 
CCOC(=O)C1=C(COCCN)NC(C)=C(C(=O)OC)C1c1ccccc1Cl (stereo not shown) [Amlodipine, amlodipine-maleate] | 1380 | 
COc1ccc(CCN2CCC(Nc3nc4ccccc4n3Cc3ccc(F)cc3)CC2)cc1 [Astemizole, astemizole] | 746 | 
C[C@@H](CO)NC(=O)[C@@H]1C=C2c3cccc4[nH]cc(c34)C[C@H]2N(C)C1 [Ergonovine, ergonovine] |  | Papp at 50 µM (in vitro; PAMPA): 25 ×10⁻⁶ cm/s
CC(C)Cc1ccc(C(C)C(=O)O)cc1 (stereo not shown) [Ibuprofen, ibuprofen] | 40 | 
CCC(C)n1ncn(-c2ccc(N3CCN(c4ccc(OCC5COC(Cn6cncn6)(c6ccc(Cl)cc6Cl)O5)cc4)CC3)cc2)c1=O (stereo not shown) [Itraconazole, itraconazole] | 1360 | Pu (boundary layer permeability) (in vitro; PAMPA, 50 µM): 2210
Cc1c(OCC(F)(F)F)ccnc1C[S+]([O-])c1nc2ccccc2[nH]1 (stereo not shown) [Lansoprazole, lansoprazole] | 35 | 
Clc1ccc(COC(Cn2ccnc2)c2ccc(Cl)cc2Cl)c(Cl)c1 (stereo not shown) [Miconazole, miconazole-nitrate] | 1690 | Pu (boundary layer permeability) (in vitro; PAMPA, 50 µM): 1520
CCn1cc(C(=O)O)c(=O)c2ccc(C)nc21 [Nalidixic acid, nalidixic acid] | 44 | 
O=C1C[C@@H](c2ccc(O)cc2)Oc2cc(O)cc(O)c21 [Naringenin, naringenin] | 39 | 
COC(=O)C1=C(C)NC(C)=C(C(=O)OCCN(C)Cc2ccccc2)C1c1cccc([N+](=O)[O-])c1 (stereo not shown) [Nicardipine, nicardipine] | 1250 | 
CNCCC=C1c2ccccc2CCc2ccccc21 [Nortriptyline, nortriptyline-HCl] | 60 | 
Cc1nccn1CC1CCc2c(c3ccccc3n2C)C1=O (stereo not shown) [Ondansetron, ondansetron] | 59 | Pu (boundary layer permeability) (in vitro; PAMPA): 6949
O=C1NC(=O)C(c2ccccc2)(c2ccccc2)N1 [Phenytoin, phenytoin-Na] | 26 | 
CN1C(C(=O)Nc2ccccn2)=C(O)c2ccccc2S1(=O)=O [Piroxicam, piroxicam] | 31 | 
COc1cc2nc(N3CCN(C(=O)c4ccco4)CC3)nc(N)c2cc1OC [Prazosin, prazosin-HCl] | 38 | 
CC(C)NCC(O)COc1cccc2ccccc12 (stereo not shown) [Propranolol, propranolol-HCl] |  | Papp at 50 µM (in vitro; [4]): 41 ×10⁻⁶ cm/s; Papp at 50 µM (in vitro; PAMPA, Pu (boundary layer permeability), stirred at 49 rpm, aqueous buffer): 369 ×10⁻⁶ cm/s; Papp at 50 µM (in vitro; PAMPA, Pu (boundary layer permeability), stirred at 118 rpm, aqueous buffer): 601 ×10⁻⁶ cm/s; Papp at 50 µM (in vitro; PAMPA, Pu (boundary layer permeability), stirred at 186 rpm, aqueous buffer): 951 ×10⁻⁶ cm/s; Papp at 50 µM (in vitro; PAMPA, Pu (boundary layer permeability), stirred at 622 rpm, aqueous buffer): 3110 ×10⁻⁶ cm/s
CNCCCC1c2ccccc2C=Cc2ccccc21 [Protriptyline, protriptyline-HCl] | 2150 | 
O=C(O)c1ccccc1O [Salicylic acid, salicylic acid] | 37 | 
CC(C)(C)c1ccc(C(O)CCCN2CCC(C(O)(c3ccccc3)c3ccccc3)CC2)cc1 (stereo not shown) [Terfenadine, terfenadine] | 2440 | 
CCOC(=O)C1=C(CSCCN)NC(C)=C(C(=O)OC)C1c1cccc([N+](=O)[O-])c1 (stereo not shown) [Tiamdipine, tiamdipine] |  | Pu (boundary layer permeability) (in vitro; PAMPA): 951
CC(=O)CC(c1ccccc1)c1c(O)c2ccccc2oc1=O (stereo not shown) [Warfarin, warfarin] |  | Papp at 50 µM (in vitro; [4]): 70 ×10⁻⁶ cm/s
CN(C)C/C=C(/c1ccc(Br)cc1)c1cccnc1 [Zimelidine, zimelidine] | 1670 | 
C[C@]12CC[C@H]3[C@@H](CCC4=CC(=O)CC[C@@]43C)[C@@H]1CC[C@@H]2O [testosterone] |  | Daq [1]: 7.84e-06 cm/s; Daq (Caco-2 type cells): 5e-06 cm/s

From patent publication US8840849B2, “Permeation device and method for reducing aqueous boundary layer thicknesses” (Pion, Inc., priority 2004, dated 2014)
